Data taken from the supplement of paper PMC10307832.

Key:
Test in all cases: relative viability (nuclei count vs DMSO), 5 days (fraction); higher = more cells survive
Indole-3-carbinol = compound: OCc1c[nH]c2ccccc12 [Indole-3-carbinol]
Method in brief: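 Viability was read as treated-well nuclei divided by vehicle-well nuclei, using the median across plates. Lung cancer cell lines in 1536-well plates were kept overnight at 37 °C, pinned with five √10-spaced library-drug doses, and after 5 days were Hoechst-stained, imaged at 4× and counted in MetaXpress. Plates passed only with control CV below 25% and at least one doubling.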

[1] = compound: OCc1c[nH]c2ccccc12 [Indole-3-carbinol] + CS(=O)(=O)N1CCN(Cc2cc3nc(-c4cccc5[nH]ncc45)nc(N4CCOCC4)c3s2)CC1 [Pictilisib] (partner 1 µM)
Method in brief: (§1)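 After 5 days of treatment, lung cancer cells in 1536-well plates were fixed and stained in a single step (final 0.05% Triton X-100, 1% formaldehyde, 1 ug/ml Hoechst) and their nuclei counted on 4× images. Treatment had been applied by pin tool the day after seeding as one drug alone or as a fixed anchor-drug dose with five library-drug doses (not always all listed) in √10 steps. Relative viability is the nuclei count of treated wells divided by that of vehicle wells, and values are medians of duplicate plates.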

[2] = compound: OCc1c[nH]c2ccccc12 [Indole-3-carbinol] + CC1(C)CCC(c2ccc(Cl)cc2)=C(CN2CCN(c3ccc(C(=O)NS(=O)(=O)c4ccc(N[C@H](CCN5CCOCC5)CSc5ccccc5)c(S(=O)(=O)C(F)(F)F)c4)cc3)CC2)C1 [Navitoclax] (partner 0.5 µM)
Method in brief: as §1

[3] = compound: OCc1c[nH]c2ccccc12 [Indole-3-carbinol] + COc1cccc2cc(-c3nc([C@H]4CC[C@H](C(=O)O)CC4)n4ncnc(N)c34)[nH]c12 [OSI-027] (partner 0.5 µM)
Method in brief: as §1

[4] = compound: OCc1c[nH]c2ccccc12 [Indole-3-carbinol] + Nc1ncn([C@H]2C[C@H](O)[C@@H](CO)O2)c(=O)n1 [Decitabine] (partner 2 µM)
Method in brief: as §1

Cell Line	relative viability (Indole-3-carbinol; 0.253 µM)	relative viability (Indole-3-carbinol; 0.8 µM)	relative viability (Indole-3-carbinol; 2.53 µM)	relative viability (Indole-3-carbinol; 8 µM)	relative viability ([1]; first compound 0.253 µM)	relative viability ([1]; first compound 0.8 µM)	relative viability ([1]; first compound 2.53 µM)	relative viability ([1]; first compound 8 µM)	relative viability ([2]; first compound 0.253 µM)	relative viability ([2]; first compound 0.8 µM)	relative viability ([2]; first compound 2.53 µM)	relative viability ([2]; first compound 8 µM)	relative viability ([3]; first compound 0.253 µM)	relative viability ([3]; first compound 0.8 µM)	relative viability ([3]; first compound 2.53 µM)	relative viability ([3]; first compound 8 µM)	relative viability ([4]; first compound 0.253 µM)	relative viability ([4]; first compound 0.8 µM)	relative viability ([4]; first compound 2.53 µM)	relative viability ([4]; first compound 8 µM)
NCI-H23	1.04	1.08	1.05	0.925	0.434	0.485	0.581	0.451	0.853	0.843	0.856	0.762	0.589	0.732	0.566	0.55	0.335	0.314	0.316	0.291
NCI-H322M	0.84	0.973	0.859	0.866	0.45	0.487	0.486	0.502	1.37	1.26	1.14	1.18	0.521	0.504	0.521	0.527	0.725	0.659	0.722	0.675
NCI-H441	1.1	1.28	1.15	1.11	0.479	0.491	0.539	0.508	0.809	0.568	0.579	0.688	0.555	0.73	0.604	0.622	0.241	0.245	0.283	0.234
NCI-H460	1.04	0.975	0.978	0.957	0.479	0.271	0.373	0.337	1.2	1.46	1.08	1	0.594	0.621	0.632	0.6	0.564	0.44	0.518	0.473
NCI-H520	0.925	0.848	1.05	0.902	0.287	0.255	0.27	0.254	1.12	0.999	1.14	1.12	0.25	0.189	0.258	0.274	0.526	0.541	0.505	0.541
NCI-H596	1.07	0.948	0.967	1	0.368	0.416	0.364	0.411	0.977	1.02	0.921	0.826	0.759	0.761	0.726	0.866	1.04	0.971	1.06	0.959
NCI-H647	1.06	0.703	1.1	0.948	0.469	–	0.489	0.437	1.16	–	1.09	1.01	0.595	–	0.826	0.497	0.417	0.438	0.455	0.354
NCI-H727	0.963	0.943	0.969	1.05	0.263	0.409	0.477	0.494	0.359	0.355	0.364	0.497	0.544	0.517	0.548	0.771	0.997	0.782	0.884	0.825
NCI-H838	1.01	0.935	0.98	0.935	0.537	0.431	0.459	0.431	1.18	1.14	1.18	1.08	0.344	0.311	0.416	0.386	0.486	0.498	0.518	0.434
NCI-H1355	1	1.11	0.97	0.961	0.324	0.415	0.435	0.428	0.967	0.919	0.858	0.896	0.403	0.44	0.363	0.396	0.342	0.359	0.379	0.371
NCI-H1395	0.945	0.92	0.929	0.881	0.616	0.67	0.639	0.662	1.23	1.16	1.19	1.08	0.738	0.606	0.637	0.613	0.723	0.771	0.695	0.685
NCI-H1437	1.01	1.01	0.992	0.945	0.535	0.438	0.466	0.433	1.15	1.14	1.18	1.03	0.917	0.849	0.895	0.852	0.591	0.599	0.599	0.591
NCI-H1650	1.03	0.794	0.943	0.882	0.521	0.399	0.547	0.6	1.32	1.16	1.26	1.1	0.597	–	0.601	0.647	0.412	0.352	0.493	0.34
NCI-H1651	0.994	0.97	1.05	0.945	0.613	0.486	0.499	0.554	1.03	1.07	1.05	0.925	0.626	0.643	0.84	0.648	0.653	0.566	0.596	0.622
NCI-H1666	0.998	1.04	0.961	0.998	0.339	0.548	0.539	0.394	0.896	1.05	0.973	0.893	0.7	0.878	0.874	0.876	0.809	0.673	0.696	0.661
NCI-H1734	0.997	0.866	0.973	0.932	0.404	0.423	0.492	0.487	0.899	0.876	0.801	0.727	0.506	0.631	0.634	0.582	0.51	0.456	0.477	0.46

Cell Line	relative viability (Indole-3-carbinol; 0.253 µM)	relative viability (Indole-3-carbinol; 0.8 µM)	relative viability (Indole-3-carbinol; 2.53 µM)	relative viability (Indole-3-carbinol; 8 µM)	relative viability ([1]; first compound 0.253 µM)	relative viability ([1]; first compound 0.8 µM)	relative viability ([1]; first compound 2.53 µM)	relative viability ([1]; first compound 8 µM)	relative viability ([2]; first compound 0.253 µM)	relative viability ([2]; first compound 0.8 µM)	relative viability ([2]; first compound 2.53 µM)	relative viability ([2]; first compound 8 µM)	relative viability ([3]; first compound 0.253 µM)	relative viability ([3]; first compound 0.8 µM)	relative viability ([3]; first compound 2.53 µM)	relative viability ([3]; first compound 8 µM)	relative viability ([4]; first compound 0.253 µM)	relative viability ([4]; first compound 0.8 µM)	relative viability ([4]; first compound 2.53 µM)	relative viability ([4]; first compound 8 µM)
NCI-H1755	1.05	0.997	0.993	0.929	0.401	0.318	0.442	0.424	1.02	1.01	0.975	0.984	0.761	0.664	0.822	0.699	0.737	0.686	0.725	0.638
NCI-H1792	0.88	0.833	0.811	0.984	0.217	0.221	0.257	0.245	0.655	0.619	0.737	0.644	0.733	0.695	0.726	0.692	0.569	0.603	0.506	0.489
NCI-H1793	0.943	0.841	1.04	0.906	0.461	0.204	0.376	0.271	0.423	0.402	0.508	0.393	0.233	0.251	0.268	0.31	0.502	0.465	0.472	0.479
NCI-H1915	1.01	1.01	0.956	0.976	0.901	0.858	0.949	0.926	0.753	0.787	0.768	0.762	0.571	0.611	0.623	0.563	0.255	0.246	0.275	0.27
NCI-H1944	0.971	0.793	0.955	0.962	0.329	0.3	0.348	0.301	1.13	1.01	1.11	1.03	0.375	0.378	0.369	0.363	0.46	0.456	0.441	0.404
NCI-H1975	1.04	0.93	1	0.897	0.293	0.305	0.326	0.288	1.14	1.27	1.11	1.08	0.589	0.808	0.696	0.743	0.392	0.38	0.415	0.436
NCI-H1993	1.06	1.07	0.872	0.919	0.795	0.802	0.808	0.806	0.958	1.1	0.89	1.01	0.513	0.516	0.63	0.468	0.641	0.657	0.573	0.623
NCI-H2009	1.05	1.03	1.01	0.951	0.842	0.743	0.763	0.837	1.16	1.2	1.18	1.02	0.572	0.677	0.649	0.604	0.406	0.346	0.376	0.381
NCI-H2023	0.952	0.963	0.984	0.935	0.218	0.237	0.23	0.236	1.01	1.05	0.977	0.954	0.406	0.405	0.438	0.398	0.213	0.213	0.212	0.198
NCI-H2085	1.01	1.03	1.03	0.949	0.41	0.389	0.444	0.503	1.1	1.02	1.15	1.05	0.76	0.884	0.747	0.684	0.5	0.63	0.483	0.506
NCI-H2087	1.18	1.11	1.01	0.896	0.726	1.07	0.91	0.833	1.04	1.22	1.02	0.967	0.435	0.644	0.571	0.513	0.278	0.323	0.255	0.341
NCI-H2126	0.986	1.01	0.997	0.957	0.469	0.483	0.518	0.498	0.824	0.872	0.865	0.83	0.706	0.745	0.65	0.791	0.6	0.601	0.547	0.54
NCI-H2170	0.999	1	0.929	0.955	0.329	0.308	0.322	0.311	0.577	0.766	0.682	0.607	0.702	0.815	0.749	0.671	0.505	0.494	0.446	0.473
NCI-H2347	1.08	1.07	1.09	0.961	0.673	0.532	0.719	0.599	0.765	0.782	0.814	0.699	0.429	0.374	0.287	0.364	0.678	0.58	0.509	0.574
NCI-H2405	1.06	1.01	1.06	1.03	0.49	0.472	0.489	0.483	1.06	0.563	0.964	0.837	0.617	0.676	0.633	0.656	0.829	0.711	0.852	0.635
